Laboratory results as given in patent US12318367B2, “Pharmaceutical composition” (ASTRAZENECA AB, priority 2008, dated 2025).

Key:
[1] = Dissolution rate of the salt compared with free base and other salts; format: physicochemical; conditions: compared to the free base form of the Agent and other salts
[2] = Bioavailability of the salt compared with free base and other salts; format: in vivo; conditions: compared to the free base form of the Agent and other salts
[3] = Bioavailability of the free base form from a conventional tablet formulation; conditions: dog, in vivo, oral, in dogs
[4] = Biopharmaceutical Classification System (BCS) classification; format: physicochemical; conditions: indicates low solubility/dissolution rate and low permeability

SMILES | dissolution rate [1] | bioavailability [2] | bioavailability [3] [%] | BCS classification [4]
Cn1cnc2c(F)c(Nc3ccc(Br)cc3Cl)c(C(=O)NOCCO)cc21 [Agent, 6-(4-bromo-2-chloro-phenylamino)-7-fluoro-3-methyl-3H-benzoimidazole-5-carboxylic acid (2-hydroxy-ethoxy)-amide] | particularly high | particularly high | – | –
Cn1cnc2c(F)c(Nc3ccc(Br)cc3Cl)c(C(=O)NOCCO)cc21 [free-base form of the Agent, 6-(4-bromo-2-chloro-phenylamino)-7-fluoro-3-methyl-3H-benzoimidazole-5-carboxylic acid (2-hydroxy-ethoxy)-amide] | – | – | ~18 | BCS Class 4
